This is an account of results in the RepoRT retention time repository (doi:10.1038/s41586-021-03707-9).

The data set is described as follows: RP, Waters ACQUITY UPLC HSS C18, 100 × 2.1 mm, 1.7 µm, 40 °C, 0.35 mL/min, estimated dead time 0.63 min; A: water + 0.1% formic acid; B: methanol + 0.1% formic acid; gradient (min/%B) 0/0.5 4/70 4.5/98 5.4/98. The note with it: stereoisomer not certain.

Turning to `Nc1nc2c(ncn2CCC(CO)CO)c(=O)[nH]1`, the LC retention time is 1.88 min.

Take `CN(C)CCC=C1c2ccccc2COc2ccccc21`: the LC retention time is 4.44 min.

Regarding `CN(C)C(=N)N=C(N)N`, the LC retention time was 0.844 min.

On to `O=C1Cc2ccccc2N1`, for which the LC retention time was 3.76 min.

Turning to `OCC1OC(OC2C(CO)OC(O)C(O)C2O)C(O)C(O)C1O` (centres undefined), the LC retention time was 0.801 min.

As to `CC(C(=O)O)C(=O)O`, the LC retention time was 1.87 min.

In the case of `CC(CC(=O)O)C(=O)O` (centres undefined), the LC retention time is 2.58 min.

Turning to `NCC(O)c1ccc(O)cc1` (centres undefined), the LC retention time is 0.904 min.

On to `Cn1ccc(=O)n(C)c1=O`, for which the LC retention time is 2.38 min.

Regarding `CC(CC(=O)O)CC(=O)O`, the LC retention time is 3.02 min.

For the compound `CC(CCC(=O)O)C(=O)O` (centres undefined), the LC retention time was 2.97 min.

As for `O=C(O)CCC(=O)O`, the LC retention time is 1.73 min.

In the case of `NC(CS(=O)O)C(=O)O` (centres undefined), the LC retention time is 0.768 min.

For the compound `Cn1cnc2c1c(=O)[nH]c(=O)n2C`, the LC retention time was 2.5 min.

For `CCc1occc(=O)c1O`, the LC retention time was 3.63 min.

With `O=c1[nH]cnc2nc[nH]c12`, the LC retention time was 1.38 min.

On to `CC1OC(n2cnc3c(N)ncnc32)C(O)C1O` (centres undefined), for which the LC retention time was 2.25 min.

Take `CCOC(=O)CC(=O)OCC`: the LC retention time is 4.32 min.

As to `NC(=O)NC(NC(N)=O)C(=O)O`, the LC retention time is 0.777 min.

In the case of `O=C(O)CCCCCCCC(=O)O`, the LC retention time was 4.56 min.

Take `C[N+](C)(C)[O-]`: the LC retention time was 0.766 min.

`COc1ccc(CCN(C)CCCC(C#N)(c2ccc(OC)c(OC)c2)C(C)C)cc1OC` (centres undefined): the LC retention time is 4.54 min.

Take `CCOC(=O)c1cncn1C(C)c1ccccc1` (centres undefined): the LC retention time was 5.14 min.

For the compound `O=Cc1ccccc1C(=O)O`, the LC retention time was 3.24 min.

As for `NC(CCC(=O)O)C(=O)O` (centres undefined), the LC retention time is 0.764 min.

As to `NC(CCS)C(=O)O` (centres undefined), the LC retention time was 0.907 min.

On to `NC(=O)c1ccc[n+](C2OC(COP(=O)([O-])O)C(O)C2O)c1` (centres undefined), for which the LC retention time was 0.907 min.

Turning to `NC(COP(=O)(O)O)C(=O)O` (centres undefined), the LC retention time was 0.759 min.

For the compound `NCC(O)c1ccc(O)c(O)c1` (centres undefined), the LC retention time was 0.806 min.

Turning to `O=C(O)c1cc(O)c(O)c(O)c1`, the LC retention time is 1.88 min.

`NC(=O)c1ncn(C2OC(COP(=O)(O)O)C(O)C2O)c1N` (centres undefined): the LC retention time was 1.11 min.

On to `CCCc1nc(C)c2c(=O)[nH]c(-c3cc(S(=O)(=O)N4CCN(CC)CC4)ccc3OCC)nn12`, for which the LC retention time is 4.47 min.

In the case of `NC(N)=NC(CC(=O)O)C(=O)O` (centres undefined), the LC retention time was 0.802 min.

For the compound `CCCOC(=O)c1cc(O)c(O)c(O)c1`, the LC retention time is 4.3 min.

As for `CNC(CC(=O)O)C(=O)O` (centres undefined), the LC retention time is 0.772 min.

In the case of `CN1CC(=O)NC1=O`, the LC retention time is 1.62 min.

Take `O=C(O)CC(O)C(=O)O` (centres undefined): the LC retention time was 1.92 min.

Turning to `O=C(O)CCCCC1SCC2NC(=O)NC21` (centres undefined), the LC retention time is 3.42 min.

For the compound `O=P(O)(O)OC(CO)CO`, the LC retention time is 0.815 min.

In the case of `CC(=O)Oc1cc(C)c(OC(C)=O)c2ccccc12`, the LC retention time is 5.35 min.

Consider `CCC1CCC(=O)O1` (centres undefined), for which the LC retention time was 3.33 min.

Regarding `O=C(O)C=Cc1cccc(O)c1`, the LC retention time was 4.38 min.

As to `O=C(O)c1ccccc1O`, the LC retention time is 2.19 min.

Consider `CNCC(O)c1ccc(O)c(O)c1` (centres undefined), for which the LC retention time is 0.911 min.

Turning to `O=C(C=Cc1ccc(O)c(O)c1)OC1CC(O)(C(=O)O)CC(O)C1O` (centres undefined), the LC retention time was 3.03 min.

As for `CN(C)CCOC(c1ccccc1)c1ccccc1`, the LC retention time is 4.37 min.

For `CC(=O)NC(Cc1ccc(O)cc1)C(=O)O` (centres undefined), the LC retention time was 2.89 min.

On to `O=C(O)C=Cc1c[nH]c2ccccc12`, for which the LC retention time is 4.59 min.

Take `CC(C)NCC(O)COc1cccc2ccccc12` (centres undefined): the LC retention time is 4.33 min.

Regarding `CSc1ccc2c(c1)N(CCC1CCCCN1C)c1ccccc1S2` (centres undefined), the LC retention time was 5.19 min.

Take `CNCCc1ccccc1`: the LC retention time was 2.61 min.

Take `Cn1cnc(=N)c2[nH]cnc21`: the LC retention time was 0.862 min.

For the compound `NCC(=O)CCC(=O)O`, the LC retention time was 0.768 min.

`CNC(CCC(=O)O)C(=O)O` (centres undefined): the LC retention time is 0.817 min.

In the case of `Nc1ncnc2c1ncn2C1OC(CSCCC(N)C(=O)O)C(O)C1O` (centres undefined), the LC retention time is 1.71 min.

As to `CCC1OC(=O)C(C)C(OC2CC(C)(OC)C(O)C(C)O2)C(C)C(OC2OC(C)CC(N(C)C)C2O)C(C)(O)CC(C)C(=O)C(C)C(O)C1(C)O` (centres undefined), the LC retention time is 4.82 min.

Turning to `C=Cc1ccc(O)cc1`, the LC retention time was 4.46 min.

For `Nc1ccccc1O`, the LC retention time was 1.42 min.

`CC12CCC(=O)C=C1CCC1C2CCC2(C)C1CCC2(O)C(=O)CO` (centres undefined): the LC retention time was 5.33 min.

On to `CC(C)CC(O)C(=O)O` (centres undefined), for which the LC retention time is 3.94 min.

Turning to `O=C(O)CC=CCC(=O)O`, the LC retention time was 2.67 min.

As for `O=C(O)C(O)Cc1ccccc1` (centres undefined), the LC retention time is 3.7 min.

As to `O=Cc1ccc(O)c(O)c1`, the LC retention time is 2.91 min.

Consider `CC(=O)CC(=O)CCC(=O)O`, for which the LC retention time was 3.3 min.

Take `COc1ccc2nc(S(=O)Cc3ncc(C)c(OC)c3C)[nH]c2c1` (centres undefined): the LC retention time was 4.42 min.

As to `CN(C)CCOC(C)(c1ccccc1)c1ccccn1` (centres undefined), the LC retention time was 3.14 min.

For `COc1ccc(C=O)cc1`, the LC retention time was 0.897 min.

Regarding `CC(C)C(O)(CC(=O)O)C(=O)O` (centres undefined), the LC retention time is 3.35 min.

For `CCCC(=O)NCC(=O)O`, the LC retention time was 2.36 min.

Consider `CC(CCC(=O)O)CC(=O)O` (centres undefined), for which the LC retention time is 3.46 min.

With `CN=C(N)N`, the LC retention time is 0.776 min.

Take `CC(C(=O)O)c1ccc(O)cc1` (centres undefined): the LC retention time is 3.84 min.

For `CC(=O)NC(CCC(=O)O)C(=O)O` (centres undefined), the LC retention time is 1.63 min.

As to `CN1C(=O)CCC1c1cccnc1` (centres undefined), the LC retention time is 1.72 min.

For `CC(C)CC(=O)NCC(=O)O`, the LC retention time is 3.07 min.

`Nc1ccn(C2CC(O)C(COP(=O)(O)O)O2)c(=O)n1` (centres undefined): the LC retention time is 1.1 min.

`CC12CCC3c4ccc(O)cc4CCC3C1CC(O)C2O` (centres undefined): the LC retention time is 4.61 min.

On to `O=C(O)Cc1ccc(O)cc1`, for which the LC retention time is 3.23 min.

For the compound `COC(=O)C1=C(C)NC(C)=C(C(=O)OC)C1c1ccccc1[N+](=O)[O-]`, the LC retention time was 5.28 min.

With `CCOC(=O)CCC(=O)OCC`, the LC retention time was 4.61 min.

Take `CCC1C(=O)OCC1Cc1cncn1C` (centres undefined): the LC retention time is 2.04 min.

Take `O=C(O)CC(O)(CC(=O)O)C(=O)O`: the LC retention time is 1.43 min.

For `CCC(=O)NCC(=O)O`, the LC retention time was 1.7 min.

Regarding `Cn1c(=O)[nH]c(=O)c2[nH]cnc21`, the LC retention time is 2.17 min.

With `C[N+](C)(C)CCOP(=O)([O-])OP(=O)(O)OCC1OC(n2ccc(N)nc2=O)C(O)C1O` (centres undefined), the LC retention time was 0.822 min.

As for `O=C(O)c1c[nH]c(=O)[nH]c1=O`, the LC retention time was 1.51 min.

In the case of `O=C(O)CCCCC(=O)O`, the LC retention time was 2.83 min.

Regarding `O=C(O)C=Cc1ccccc1`, the LC retention time was 4.92 min.

Turning to `COC(=O)c1cccnc1`, the LC retention time is 3.23 min.

On to `O=c1[nH]c(=O)c2ncn(C3OC(COP(=O)(O)O)C(O)C3O)c2[nH]1` (centres undefined), for which the LC retention time is 1.41 min.

As to `Nc1cccc(C(=O)O)c1O`, the LC retention time was 1.54 min.

For the compound `Cn1c(=O)[nH]c2nc[nH]c2c1=O`, the LC retention time is 2.28 min.

Regarding `O=C(O)c1ccccc1C(=O)O`, the LC retention time is 3.32 min.

Take `Nc1ccn(C2OC(CO)C(OP(=O)(O)O)C2O)c(=O)n1` (centres undefined): the LC retention time was 0.912 min.

Take `O=C(O)C=C(CC(=O)O)C(=O)O`: the LC retention time was 1.84 min.

Take `CC(O)(CC(=O)O)CC(=O)O`: the LC retention time is 1.9 min.

`O=C(O)CNC(=O)c1ccccc1`: the LC retention time is 3.23 min.

As for `CC(=O)OCC(=O)C1(O)CCC2C3CCC4=CC(=O)CCC4(C)C3C(O)CC21C` (centres undefined), the LC retention time was 5.32 min.

In the case of `CC(=O)NC(CC(=O)O)C(=O)O` (centres undefined), the LC retention time was 1.23 min.

Turning to `NC(CCOC(=O)CCC(=O)O)C(=O)O` (centres undefined), the LC retention time is 1.36 min.

Consider `CN(C)CCC=C1c2ccccc2CCc2ccccc21`, for which the LC retention time is 4.85 min.

For the compound `NC(CS(=O)(=O)O)C(=O)O` (centres undefined), the LC retention time is 0.773 min.

For `CN(C)CCCN1c2ccccc2CCc2ccccc21`, the LC retention time is 4.77 min.

In the case of `NCc1ccccc1`, the LC retention time is 1.99 min.

Regarding `O=C(O)CCCCCCCCC(=O)O`, the LC retention time was 4.96 min.

As for `Cc1cc2nc3[nH]c(=O)[nH]c(=O)c3nc2cc1C`, the LC retention time was 4.5 min.

Turning to `CC12CC3CC(C)(C1)CC(N)(C3)C2`, the LC retention time is 4.42 min.

Turning to `Cc1ncc(C[n+]2csc(CCOP(=O)(O)O)c2C)c(N)n1`, the LC retention time was 0.762 min.

For `NC(Cc1ccc(O)cc1)C(=O)O` (centres undefined), the LC retention time was 1.66 min.

As for `CC(=O)NC1C(O)CC(O)(C(=O)O)OC1C(O)C(O)CO` (centres undefined), the LC retention time was 0.846 min.

Take `O=C(O)c1cccnc1C(=O)O`: the LC retention time is 1.35 min.

With `O=c1ccc2ccccc2o1`, the LC retention time is 4.19 min.

`O=C1CCNC(=O)N1`: the LC retention time is 1.16 min.

For `COc1ccc(C2Sc3ccccc3N(CCN(C)C)C(=O)C2OC(C)=O)cc1` (centres undefined), the LC retention time is 4.53 min.

As to `CCN(Cc1ccncc1)C(=O)C(CO)c1ccccc1` (centres undefined), the LC retention time was 3.36 min.

Consider `NCCc1ccc(O)c(O)c1`, for which the LC retention time is 1.35 min.

On to `O=C(O)c1c[nH]c2ccccc12`, for which the LC retention time was 4.08 min.

Regarding `NC(CS)C(=O)O` (centres undefined), the LC retention time is 0.798 min.

As for `O=c1cccc[nH]1`, the LC retention time is 1.94 min.
